Measurements taken from PMC13095408, “DBeQ derivative targets vacuolar protein sorting 4 functions in cancer cells and suppresses tumor growth in mice” (The Journal of Pharmacology and Experimental Therapeutics, 2025).
Values after ≈ are worked out from the molar mass of the structure shown.

Legend:
9464D s.c. tumors = test: 9464D syngeneic mouse model of neuroblastoma; format: in vivo; details: 5 mg/kg/day, i.p.
Procedure: To establish a syngeneic tumor mouse model, 9464D cells were resuspended in 50% Matrigel Matrix in 1× PBS at a concentration of […] and a total of 0.1 mL of this mixture (1 × 10^6 cells) was subcutaneously injected into the flank of each of the 6 to 8-week-old B6 mice (n = 19; 12 M, 7 F). Fourteen days after engraftment, mice began daily intraperitoneal administration of either vehicle (n = 9; 6 M, 3 F) or 5 mg/kg 4-107 (n = 10; 6 M, 4 F). Mouse tumor volume was measured weekly, then every 1–3 days once vehicle-treated tumors reached 1000–2000 mm^3. Tumor volume was calculated as πLW^2/6 using length (L) and width (W) caliper measurements. Mouse body weight was measured daily. Humane endpoints were defined as tumor volume reaching 4000 mm^3 or mice reaching the aforementioned toxicity endpoints, at which point the affected mice were euthanized. The experimental endpoint was determined as the time when the majority of tumors from the control group reached 4000 mm^3.

Thermodynamic solubility = format: physicochemical; details: FaSSIF-V2 buffer, thermodynamic from solid; In FaSSIF-V2, pH 6.5
VPS4B = target: T1, VPS4B (Homo sapiens, UniProt O75351); test: VPS4B cellular thermal shift assay (CETSA); format: cell-based; set-up: endogenous in cells; host or cells: U2OS; details: 2 μM 4-107, 1 hour, starved U2OS cells
T1 sequence (O75351 1-444): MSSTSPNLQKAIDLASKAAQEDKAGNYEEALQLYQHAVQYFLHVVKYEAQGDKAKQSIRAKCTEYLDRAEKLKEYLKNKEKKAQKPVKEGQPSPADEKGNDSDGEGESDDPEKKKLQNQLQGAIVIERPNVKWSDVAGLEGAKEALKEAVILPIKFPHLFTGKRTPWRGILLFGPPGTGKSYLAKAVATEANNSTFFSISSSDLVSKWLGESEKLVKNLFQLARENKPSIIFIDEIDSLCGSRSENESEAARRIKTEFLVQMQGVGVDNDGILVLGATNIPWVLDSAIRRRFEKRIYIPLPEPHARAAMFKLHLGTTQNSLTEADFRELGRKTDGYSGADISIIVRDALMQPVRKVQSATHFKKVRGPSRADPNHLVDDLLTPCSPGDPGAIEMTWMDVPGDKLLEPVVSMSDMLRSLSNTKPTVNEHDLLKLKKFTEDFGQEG
Procedure: The VPS4B CETSA was performed as previously described with modification ([Jafari et al, 2014]). In 10-cm dishes, near-confluent U2OS cells were rinsed with 1× DPBS and treated with the indicated compounds in acclimatized SM for 1 hour at 37 °C (0.1% DMSO). Cells were trypsinized, pelleted at 300 × g for 5 minutes, and washed with 1× PBS. After repeat pelleting at 300 × g for 5 minutes, the cells were resuspended in 1× PBS with protease inhibitor cocktail (1:250) and aliquoted into PCR strips with 20 μL per tube. PCR strips for each treatment were heated on a temperature gradient for 3 minutes using a thermal cycler (Bio-Rad Laboratories), followed by incubation at RT for 3 minutes. […] To normalize protein loading for SDS-PAGE, the soluble protein concentration of each 37 °C sample was quantified via the Pierce BCA assay ([…]), and a volume equal to 10 μg of protein was used for all samples from the same treatment. […] Signals were acquired with the Odyssey CLx (LI-COR) and quantified via densitometry using Image Studio version 6 (LI-COR). The remaining VPS4B levels were calculated by first obtaining the ratio of VPS4B:ACTB band intensities of each sample and then normalizing these ratios to that of the respective 37 °C sample. […]

[1] = test system: GFP-CHMP4B-expressing U2OS cells; test: GFP-CHMP4B accumulation cell-based assay (high-content microscopy)
In short: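 GFP-CHMP4B U2OS cells were cultured overnight, stained, then treated in SM with compounds (0.1% DMSO or 0.1% DMSO/0.1% ethanol vehicle final). High-content imaging used a 20× NA .70 objective at set intervals, ≥300 cells/well over 3 fields/well.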

[2] = Escalating dose MTD study; format: in vivo; details: daily doses increasing 50% each day from 5 mg/kg, B6 mice
Procedure: All animal studies were performed in accordance with the guidelines of the Institutional Animal Care and Use Committee at the Penn State College of Medicine (IACUC # PRAMS201145989). To determine the maximum tolerated dose (MTD) of 4-107, escalating and acute dose studies were performed. The escalating MTD study used an intra-animal design where each mouse received daily doses of 4-107 that increased 50% each day from a starting dose of 5 mg/kg. Six female C57BL/6J (B6) (The Jackson Laboratory; 000664) were administered 4-107 either orally via oral gavage or via intraperitoneal injection with 3 mice per group. The acute MTD study had groups of mice receive daily consistent doses of 4-107 i.p. Here, B6 mice were administered 4-107 at either 5 (n = 4; 2 males [M], 2 females [F]), 10 (n = 4; 2 M, 2 F), 15 (n = 5; all M), or 20 mg/kg (n = 5; all M). In both studies, 4-107 dissolved in DMSO was mixed into 30% propylene glycol, 5% Tween 80, and 65% of 5% dextrose in water (PTD [vehicle]) with a final DMSO concentration of ≤ 3%. […] BCS was determined by posture and prominence of skeletal features upon visual inspection and palpation, where BCS < 2 indicated a hunched posture and emaciation. […] The MTD was determined as the highest dose of 4-107 administered without mice reaching the toxicity endpoints.

## COc1cccc2c(NCc3ccccc3)nc(NCc3ccccc3)nc12 [Compound 4-107, N^2,N^4-dibenzyl-8-methoxyquinazoline-2,4-diamine]
9464D s.c. tumors; from day 14 after engraftment, B6 mice
  tumor growth: significantly reduced tumor growth
9464D s.c. tumors; tumor-bearing B6 mice
  mice that tolerated treatment: 7 of 10
Thermodynamic solubility
  solubility thermodynamic at 16 h: 17 µM (≈ 6.3 µg/mL)
VPS4B
  decrease of VPS4B Tagg: approximately 3 °C
[1]; screened at 1 µM, mean ± S.D., Supplemental Table 2
  GFP-CHMP4B (% 4-107): 100.00 ± 17.20 % 4-107
[1]; screened at 1 μM, starvation media, 1 hour, foci intensity per cell normalized to 4-107, mean ± SD, Table 1, listed as 1
  GFP-CHMP4B (% 4-107): 100.00 ± 17.20 % 4-107
[2]; i.p.
  doses exhibiting toxicity, intraperitoneal route: above 25 mg/kg
[2]; oral gavage, doses up to
  well tolerated dose, oral route: approximately 90 mg/kg
